Measured values from ChEMBL document CHEMBL1201862, “PubChem BioAssay data set” (2004).
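Test compounds were applied to cells in 96-well plates for 48 hours at 5 doses. The concentration for 50% growth inhibition is given as GI50.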 The source made the active and inactive calls. No stated cut-off is given here; in the data, active = GI50 up to about 1.1 µM and inactive = higher.

Legend:
Experiment in all cases: DTP human tumour cell line panel, 48 h
OVCAR-3 = test system: OVCAR-3
SK-MEL-2 = test system: SK-MEL-2
ACHN = test system: ACHN
NCI-H23 = test system: NCI-H23
SW-620 = test system: SW-620
M14 = test system: M14
OVCAR-4 = test system: OVCAR-4
CAKI-1 = test system: CAKI-1
SNB-75 = test system: SNB-75
MDA-MB-435 = test system: MDA-MB-435
HL-60 = test system: HL-60
MCF7 = test system: MCF7
DU-145 = test system: DU-145
A549 = test system: A549
COLO 205 = test system: COLO 205
HOP-92 = test system: HOP-92
SF-268 = test system: SF-268
Hs-578T = test system: Hs-578T
CCRF-CEM = test system: CCRF-CEM
HCC 2998 = test system: HCC 2998

Measured: GI50

O=C(O)C/C(=C\c1ccco1)C(=O)O
inactive: OVCAR-3 > 100 µM | SK-MEL-2 > 100 µM | ACHN > 100 µM | NCI-H23 > 100 µM | SW-620 > 100 µM | M14 > 100 µM | OVCAR-4 > 100 µM | CAKI-1 > 100 µM | SNB-75 > 100 µM | MDA-MB-435 > 100 µM | HL-60 > 100 µM | MCF7 > 100 µM | DU-145 > 100 µM | A549 > 100 µM | COLO 205 > 100 µM

Oc1c(/N=N\c2ccccc2)c2cccc3ccc4cccc1c4c32
inactive: OVCAR-3 > 100 µM | SK-MEL-2 > 100 µM | ACHN 26.8 µM | HOP-92 > 100 µM | SF-268 45.9 µM | NCI-H23 > 100 µM | Hs-578T 33.7 µM | SW-620 > 100 µM | M14 > 100 µM | OVCAR-4 43.2 µM | CAKI-1 > 100 µM | SNB-75 38.6 µM | MDA-MB-435 > 100 µM | CCRF-CEM > 100 µM | DU-145 > 100 µM | A549 > 100 µM | COLO 205 > 100 µM

O=C1C(Cl)C(c2cc(Br)ccc2O)N1n1cnc2ccccc2c1=O (centres undefined)
inactive: OVCAR-3 6.93 µM | SK-MEL-2 22.1 µM | ACHN 11.8 µM | HOP-92 15.7 µM | SF-268 2.53 µM | NCI-H23 16.5 µM | SW-620 10 µM | M14 11.3 µM | OVCAR-4 10.7 µM | CAKI-1 21.3 µM | SNB-75 15.2 µM | CCRF-CEM 3.28 µM | HL-60 1.72 µM | A549 26.9 µM | COLO 205 27.7 µM | HCC 2998 17.4 µM

CC(C)(NO)/C(=N\O)c1ccccc1
inactive: OVCAR-3 > 10 µM | SK-MEL-2 > 10 µM | ACHN > 10 µM | HOP-92 > 10 µM | SF-268 > 10 µM | NCI-H23 > 10 µM | SW-620 > 10 µM | M14 > 10 µM | OVCAR-4 > 10 µM | CAKI-1 > 10 µM | MDA-MB-435 > 10 µM | CCRF-CEM > 10 µM | HL-60 > 10 µM | MCF7 > 10 µM | DU-145 > 10 µM | COLO 205 > 10 µM | HCC 2998 > 10 µM

Fc1ccc(C2SCc3nc4ccccc4n32)c(F)c1 (centres undefined)
inactive: OVCAR-3 51.1 µM | SK-MEL-2 71.9 µM | ACHN 82.4 µM | HOP-92 29.8 µM | SF-268 > 100 µM | NCI-H23 46.3 µM | SW-620 > 100 µM | M14 73.1 µM | OVCAR-4 95.7 µM | CAKI-1 > 100 µM | SNB-75 > 100 µM | CCRF-CEM 51.6 µM | HL-60 22 µM | A549 83.8 µM | COLO 205 > 100 µM | HCC 2998 98.6 µM

CN1N=C(c2ccncc2)OC1c1cccc(C(F)(F)F)c1 (centres undefined)
inactive: OVCAR-3 71.1 µM | SK-MEL-2 > 100 µM | ACHN > 100 µM | SF-268 > 100 µM | NCI-H23 > 100 µM | Hs-578T > 100 µM | SW-620 > 100 µM | M14 > 100 µM | OVCAR-4 > 100 µM | SNB-75 4.36 µM | MDA-MB-435 > 100 µM | CCRF-CEM > 100 µM | HL-60 81.3 µM | DU-145 > 100 µM | A549 > 100 µM | COLO 205 > 100 µM | HCC 2998 > 100 µM

CCc1n[nH]c(=O)n1CCO
inactive: OVCAR-3 > 100 µM | SK-MEL-2 > 100 µM | ACHN > 100 µM | HOP-92 > 100 µM | NCI-H23 > 100 µM | SW-620 > 100 µM | M14 > 100 µM | OVCAR-4 > 100 µM | CAKI-1 > 100 µM | MDA-MB-435 > 100 µM | HL-60 > 100 µM | MCF7 > 100 µM | DU-145 > 100 µM | A549 > 100 µM | COLO 205 > 100 µM | HCC 2998 > 100 µM

[O-][n+]1cn[n+]([O-])c2ccccc21
inactive: SK-MEL-2 27.4 µM | ACHN 12.2 µM | SF-268 33.2 µM | NCI-H23 65.3 µM | Hs-578T 57.1 µM | SW-620 6.82 µM | M14 23.8 µM | CAKI-1 18.9 µM | SNB-75 66.5 µM | MDA-MB-435 67.3 µM | CCRF-CEM 3.46 µM | HL-60 5.04 µM | MCF7 14.3 µM | DU-145 63.1 µM | A549 39.6 µM | COLO 205 19.2 µM | HCC 2998 27.1 µM

CC(C(=O)c1ccc(O)cc1)C1(O)C(=O)Nc2c(Cl)cc(Cl)cc21 (centres undefined)
inactive: OVCAR-3 31.6 µM | SK-MEL-2 > 100 µM | ACHN 16.6 µM | HOP-92 > 100 µM | SF-268 > 76.9 µM | NCI-H23 59.8 µM | SW-620 32.9 µM | M14 26.7 µM | OVCAR-4 21.7 µM | CAKI-1 > 100 µM | SNB-75 47.6 µM | CCRF-CEM 26.6 µM | HL-60 20.9 µM | A549 > 100 µM | COLO 205 > 100 µM | HCC 2998 > 100 µM

CCOC(=O)C=C1CCC2(CC1)OCCO2
inactive: OVCAR-3 > 100 µM | SK-MEL-2 > 100 µM | ACHN > 100 µM | HOP-92 > 100 µM | SF-268 > 100 µM | NCI-H23 > 100 µM | SW-620 > 100 µM | M14 > 100 µM | OVCAR-4 > 100 µM | CAKI-1 > 100 µM | SNB-75 > 100 µM | CCRF-CEM > 100 µM | HL-60 > 100 µM | DU-145 > 100 µM | A549 > 100 µM | COLO 205 > 100 µM | HCC 2998 > 100 µM

CC(=O)N1C(NN(C)C)CCN1c1ccccc1 (centres undefined)
inactive: HOP-92 > 10 µM | SF-268 > 10 µM | NCI-H23 > 10 µM | SW-620 > 10 µM | M14 > 10 µM | OVCAR-4 > 10 µM | CAKI-1 > 10 µM | SNB-75 > 10 µM | MDA-MB-435 > 10 µM | CCRF-CEM > 10 µM | HL-60 > 10 µM | MCF7 > 10 µM | DU-145 > 10 µM | A549 > 10 µM | COLO 205 > 10 µM | HCC 2998 > 10 µM

Cc1ccc(-c2c(C#N)c(-c3ccc([N+](=O)[O-])cc3)c(C#N)c(=O)n2NS(=O)(=O)c2ccc(C)cc2)cc1
inactive: OVCAR-3 21.2 µM | SK-MEL-2 62.4 µM | ACHN 51.9 µM | HOP-92 23.5 µM | SF-268 79.3 µM | Hs-578T 30.7 µM | SW-620 51.6 µM | M14 54.1 µM | OVCAR-4 41.5 µM | CAKI-1 50.6 µM | SNB-75 74.5 µM | MDA-MB-435 86.9 µM | CCRF-CEM 25.9 µM | HL-60 31.3 µM | MCF7 24.9 µM | A549 51.9 µM | COLO 205 80.4 µM | HCC 2998 29.4 µM

O=C1C=CC(=O)N1n1c(-c2ccccc2)n[nH]c1=O
inactive: OVCAR-3 > 100 µM | SK-MEL-2 > 100 µM | SF-268 > 100 µM | NCI-H23 > 100 µM | Hs-578T > 100 µM | M14 > 100 µM | OVCAR-4 > 100 µM | CAKI-1 > 100 µM | MDA-MB-435 > 100 µM | CCRF-CEM > 100 µM | HL-60 > 100 µM | MCF7 > 100 µM | DU-145 > 100 µM | A549 > 100 µM | COLO 205 > 100 µM | HCC 2998 > 100 µM

COC(=O)[C@](NC(=O)OCc1ccccc1)([C@@H](C)[S+]([O-])c1ccc(C)cc1)C(F)(F)F (some centres undefined)
inactive: OVCAR-3 43.7 µM | SK-MEL-2 19.5 µM | ACHN 39.6 µM | HOP-92 26.9 µM | SF-268 41.1 µM | NCI-H23 32.1 µM | Hs-578T 58.9 µM | SW-620 53.2 µM | M14 48.2 µM | OVCAR-4 20.8 µM | CAKI-1 41 µM | SNB-75 36.4 µM | MDA-MB-435 33.7 µM | CCRF-CEM 22.8 µM | HL-60 17 µM | DU-145 38.2 µM | A549 29.9 µM | COLO 205 25.8 µM | HCC 2998 32.6 µM

O=C(O)Cn1cc([N+](=O)[O-])c(=O)c2ccccc21
inactive: OVCAR-3 > 100 µM | SK-MEL-2 > 100 µM | ACHN > 100 µM | SF-268 > 100 µM | NCI-H23 > 100 µM | Hs-578T > 100 µM | SW-620 > 100 µM | M14 > 100 µM | CAKI-1 > 100 µM | SNB-75 > 100 µM | MDA-MB-435 > 100 µM | CCRF-CEM > 100 µM | HL-60 > 100 µM | MCF7 > 100 µM | DU-145 57 µM | A549 > 100 µM | COLO 205 19.5 µM | HCC 2998 > 100 µM

Clc1ccc(C(c2ccc(Cl)cc2)c2cncnc2)cc1
inactive: OVCAR-3 14.7 µM | ACHN 19.2 µM | SF-268 17.8 µM | NCI-H23 15.9 µM | Hs-578T 18.3 µM | M14 16.4 µM | OVCAR-4 15.2 µM | CAKI-1 18.6 µM | MDA-MB-435 13.7 µM | CCRF-CEM 17.5 µM | HL-60 22.9 µM | MCF7 15.3 µM | DU-145 17.5 µM | A549 20.5 µM | COLO 205 17.1 µM

Cc1ccc2c(O)cc(-c3sc4ccccc4c3C)nc2n1
inactive: SK-MEL-2 37 µM | HOP-92 4.46 µM | SF-268 21.6 µM | Hs-578T 19.9 µM | M14 17.5 µM | OVCAR-4 19.1 µM | CAKI-1 21.6 µM | SNB-75 17.3 µM | CCRF-CEM 23.9 µM | MCF7 41.7 µM | DU-145 22.9 µM | A549 22.7 µM | COLO 205 23.4 µM
